Key:
[1] = system: chimeric APV23 (FL-J6/JFH) genotype 2a HCV; experiment: HCV APV23 viral infectivity assay in Huh7.5 cells, 3′NTR RNA by realtime quantitative PCR; format: cell-based, hepatitis C virus; settings: FIG. 6, genotype 2a NS4B coding region
Method: (§1) Inhibition of HCV infectivity by AP0080978 and its analogs (AP0080977, non-active enantiomer; AP0089652, racemate; and AP0080935, an aromatic, non-optically active analog of AP0080978) was assayed by exposing cells with infectious chimeric HCV virions in the presence of the compounds. This was accomplished by use of an HCV cell culture system essentially as described in Pietschmann, T. et al. (2006) 103(19): 7408-13, Proc. Natl. Acad. Sci. USA; and elsewhere. Two viral constructs were utilized to characterize inhibition of viral infectivity (FIG. 4). Construct APV23 (FL-J6/JFH) is a full-length, chimeric, genotype 2a HCV genome containing the HCV core through the NS2 first transmembrane domain coding region from the J6 HCV isolate linked to the second NS2 transmembrane domain NS3 through NS5B coding region of HCV strain JFH-1, as shown in FIG. 4 (i.e. an HCV chimera with the “C3 Junction” described in Pietschmann, T. et al. (2006) Proc. Natl. Acad. Sci. USA 103(19): 7408-13; see page 7409 and FIG. 2A of Pietschmann, T. et al.). Construct APV112 was generated by replacing nucleotides encoding amino acids 53 to 218 of the NS4B gene of the APV23 sequence with a corresponding sequence from a genotype 1b (Con1 strain).
(§2) Huh7.5 cells were plated at a density of 20,000 cells per well in 96-well plates. The cells were exposed to the chimeric HCV virions at a multiplicity of infection of 0.01. Potential inhibitory compounds were added simultaneously with the chimeric virus. Cells were incubated for 48 hours and then the levels of HCV 3′NTR and GAPDH RNA were quantified by realtime quantitative PCR. Data were analyzed by the comparative Ct method with delta-delta Ct determined relative to 1.0% DMSO. Results in FIGS. 5 and 6 are depicted as log change in 3′NTR copies relative to 1.0% DMSO.

[2] = system: genotype 1b (Con1 strain) replicon with NS4B F1809V mutation; experiment: F1809V mutant reporter replicon IVT RNA in Huh7.5 cells; format: cell-based; settings: Hepatitis C virus
Description: (§3) To identify nucleotide changes that confer resistance to 80978, replicon RNA was reverse transcribed and amplified from total RNA extracted from 80978-resistant and control Clone A cells. […] One silent mutation at amino acid 1771 was also observed. Each mutation was introduced independently into a stable genotype 1b (Con1 strain) subgenomic reporter replicon plasmid via site-directed mutagenesis. […] The sequence of the wild type NS4B encoding sequence is provided as SEQ ID NO:1, the sequence of the mutated NS4B nucleotide sequence encoding the F1809V mutation is provided as SEQ ID NO:3, and the sequence of the mutated NS4B nucleotide sequence encoding the F1809L mutation is provided as SEQ ID NO:5. The sequence of the wild type NS4B protein is provided as SEQ ID NO:2, the sequence of the mutated NS4B protein with the F1809V mutation is provided as SEQ ID NO:4, and the sequence of the mutated NS4B nucleotide sequence encoding the F1809L mutation is provided as SEQ ID NO:6. […] A differential response was observed between cells electroporated with different replicon RNAs.

[3] = system: chimeric APV112 HCV (genotype 2a with genotype 1b NS4B amino acids 53 to 218); experiment: HCV APV112 viral infectivity assay in Huh7.5 cells, 3′NTR RNA by realtime quantitative PCR; format: cell-based, hepatitis C virus; settings: for Log change in 3′NTR copies relative to 1.0% DMSO (GAPDH normalized): 48 hours; for chimeric APV112 viral infectivity: sensitive genotype 1b NS4B region
Method: as §1, §2

[4] = system: genotype 1b (Con1 strain) replicon with NS4B S1949Y mutation; experiment: S1949Y mutant reporter replicon IVT RNA in Huh7.5 cells; format: cell-based; settings: Hepatitis C virus
Description: as §3

[5] = system: genotype 1b (Con1 strain) subgenomic replicon in 80978-resistant Clone A cells; experiment: 80978-resistant Clone A cells, HCV RNA by quantitative RT-PCR; format: cell-based; settings: Hepatitis C virus, 72 h
Method: In an effort to gain insight into the target of 80978, Clone A cells were selected for resistance to 80978. Clone A cells are a human hepatoma cell line that contains a stable genotype 1b (Con1 strain) subgenomic replicon. Cells were cultured for 12 days in medium containing 10 μM 80978 and 1 mg/ml Geneticin™ (Invitrogen). Medium was changed every 3-4 days to replenish compound, and cells were split as needed to maintain subconfluent cultures. After 12 days of growth in the presence of 10 μM 80978, the concentration of 80978 was increased to 20 μM and cultured for an additional 19 days. Control Clone A cells were grown in parallel in the presence of diluent only. After this culture period, cells were evaluated for response to 80978.
Control cells and cells that had been cultured in the presence of 80978 were treated in triplicate with 3-fold serial dilutions of compound for 72 hours. At the end of this incubation period, total RNA was extracted, and HCV RNA levels were measured by quantitative RT-PCR using primers that recognize the 3′NTR.

## O=C(NCc1cccs1)c1nn2c(c1Cl)N[C@H](c1ccco1)C[C@@H]2C(F)(F)F (single isomer, unassigned) [Compound 80978]
[1]; listed as AP 80978
  chimeric APV23 viral infectivity: resistant
[1]; listed as AP0080978
  chimeric APV23 viral infectivity: unaffected
[2]
  EC50: > 22.5 µM
[3]
  potency in viral infectivity assays relative to HCV replicon assays: significantly more potent
[3]; 0.02 μM, APV112
  greater log change relative to the log change of the 89652 racemate: 5.3 fold
  Log change in 3′NTR copies relative to 1.0% DMSO (GAPDH normalized): −0.79
[3]; 0.07 μM, APV112
  Log change in 3′NTR copies relative to 1.0% DMSO (GAPDH normalized): −1.29
[3]; 0.22 μM, APV112
  Log change in 3′NTR copies relative to 1.0% DMSO (GAPDH normalized): −1.52
[3]; 0.67 μM, APV112
  Log change in 3′NTR copies relative to 1.0% DMSO (GAPDH normalized): −1.67
[3]; 2 μM, APV112
  Log change in 3′NTR copies relative to 1.0% DMSO (GAPDH normalized): −1.49
[3]; FIG. 5, APV112
  potency relative to control HCV inhibitors 2′CMeA, VX-950, cyclosporin A and a-CD81 antibody (JS81): significantly more potent
[3]; FIG. 5, listed as AP 80978
  chimeric APV112 viral infectivity: able to inhibit
[3]; FIG. 5, listed as AP0080978
  chimeric APV112 viral infectivity: reduced
[4]
  EC50: 0.41 µM
[5]
  EC50: > 25 µM

Source: patent publication US8809344B2, “Compounds, compositions, and methods for control of hepatitis C viral infections” (priority 2008, dated 2014)
